87 molecules from a melting point compilation (Tetko et al.; mined from patent text by program, amines drawn as free bases though some values may be those of a salt) can be followed below.

What is called melting point is the temperature of the solid-liquid transition.

`O=C(O)CC1CCCc2c1n(Cc1ccc(Cl)cc1)c1ccc(C(F)(F)F)cc21` (configuration not stated): the melting point was 167 to 168 °C.
In the case of `Cc1cc2c(s1)SCCNC2=O` it was 155 to 156 °C; in that of `CCOP(=O)(OCC)C1(P(=O)(OCC)OCC)CC(C(=O)C(C)c2ccc(-c3ccccc3)c(F)c2)=NN1` (configuration not stated), 109 to 110 °C.
`CCOC(=O)c1cn(-c2ccccc2)c2occc2c1=O` showed a melting point of 168 to 170 °C.
To `CC(C)c1cccc(CCC(O)CCCC2CCCCC2)c1NC(=O)CC1c2ccccc2Oc2ccccc21` (configuration not stated) belongs 142 to 143 °C; to `CCOC(=O)c1snc(C(=O)OC(C)(C)C)c1N`, 68 to 69 °C; to `CS(=O)(=O)c1cc(N)c([N+](=O)[O-])cc1N`, 221 °C.
In the case of `CCCCc1nc2cccc(C(=O)OC)c2n1Cc1ccc(-c2cncnc2-c2nnn[nH]2)cc1` it was 215 to 220 °C.
To `COc1ccc(C2CC(=O)OC(=O)C2)cc1` belongs 144 to 149 °C; to `Nc1nc(-n2cc(C(=O)O)c(=O)c3c(F)c(F)c(F)c(F)c32)c(F)cc1F`, 236 to 242 °C; to `Cn1cncc1CCNC(=O)c1[nH]c2ccc(Cl)cc2c1S(=O)(=O)c1ccccc1`, 257 to 258 °C.
`NC(=O)CC[C@H](NC(=O)c1ccc(OCc2ccccc2)cc1OCc1ccccc1)C(=O)N1CCN(c2ccccc2)CC1`: the melting point is 157 to 158 °C.
Regarding `CCOC(=O)c1cnn2c(-c3ccccc3)ccnc12`, the melting point was in the range of 129 to 130 °C.
In the case of `C[C@H](NC(=O)c1cc(F)cc(NS(=O)(=O)CC2CN(C(c3ccc(Cl)cc3)c3ccc(Cl)cc3)C2)c1)C(N)=O`, the melting point lay within 219 to 221 °C.
In the case of `COc1ccc(-n2c(=O)[nH]c3c(C(N)=O)nc(-c4cccc(O)c4)nc32)c(C)c1` it was 355 to 357 °C; in that of `Cc1cc(C2=C(c3ccc(S(C)(=O)=O)cc3)C(C)(C)OC2=O)ccc1-c1cscn1`, 80.3 °C.
In the case of `COc1cc(CO)ccc1OCc1sc(-c2ccccc2)nc1C` it was 152 to 153 °C; in that of `CN(C(=S)c1ccccn1)c1cccc(F)c1`, 100 to 103 °C.
To `COc1ccc(-n2ccnc2C(c2cc(F)ccc2F)S(=O)(=O)c2ccc(Cl)cc2)cc1` (configuration not stated) belongs 150 to 151 °C; to `Cn1c(Br)c(C#N)c(C(F)(F)F)c1Br`, 101 to 104 °C; to `c1ccc2c(c1)CC1(CCNCC1)O2`, 56 to 58.5 °C.
The molecule `Cc1cc(C2=CO[C@@](c3cc(Cl)cc(Cl)c3)(C(F)(F)F)C2)ccc1C(=O)NC1CS(=O)(=O)C1` displayed a melting point of 90 to 105 °C.
To `O=c1c(I)coc2ccccc12` belongs 95 to 97 °C; to `CCC(c1ccc(Nc2ccccc2)c2ccccc12)c1ccc(Nc2ccccc2)c2ccccc12`, 115 °C; to `CNC(=O)c1ccccc1Nc1nc(Nc2ccc3c(c2)N(C)CCN(CCOC)C3)ncc1Cl`, 172 to 174 °C.
To `CCCCCCCCCCCCCCCCCCN1C(=O)CC(c2cc(C(C)(C)C)c(O)c(C(C)(C)C)c2)C1=O` (configuration not stated) belongs 70 to 73 °C.
To `COC(=O)c1cc(C(C)C)sc1NC(=O)Nc1ccc(C)cc1` belongs 49 to 51 °C; to `O=C1CCCCC(CO)N1` (configuration not stated), 100 °C.
`C1=CC(n2nc(-c3cccc4ccccc34)cc2-c2ccccc2)(n2nc(-c3cccc4ccccc34)cc2-c2ccccc2)CC=C1c1ccccc1` had a melting point of 264 °C.
To `COc1ccc([C@]2(C)Cc3cc(OC)ccc3[C@@H]2CCC2OCCCO2)cc1` (racemic) belongs 86 to 88 °C.
To `Cc1nnc(-c2ccc3ncn(-c4ccc(OC(F)(F)F)cc4)c3c2)o1` belongs 160 to 161 °C.
In the case of `Cc1oc(-c2ccccc2)nc1COc1cc(CCl)on1` it was 105 to 106 °C.
`CCCNC(=O)C(C#N)=C1Nc2ccccc2O1` came in with a melting point of 215 to 220 °C.
`CCCCCCCOc1ccc(C2CCC(=O)O2)cc1` (single isomer, unassigned) had a melting point of 44 °C.
To `C[C@@H](c1ccc(-c2c[nH]nn2)cc1)[C@](O)(Cn1cncn1)c1ccc(F)cc1F` belongs 121 °C; to `Oc1ccc(-c2cc3cc(O)ccc3o2)c(Br)c1`, 195 °C; to `N#CC(=O)c1cccc(Cl)c1`, 146 to 148 °C.
In the case of `COC(=O)C(Oc1ccc(C23CC4CC(CC(C4)C2)C3)cc1)c1ccc(Oc2ccc(Cl)cc2)cc1` (configuration not stated) it was 148 to 150 °C.
In the case of `CC(C(=O)O)c1cccc(NC(=O)NCC(=O)N2[C@@H](c3ccccc3)CC[C@H]2C(=O)OC(C)(C)C)c1` (some centres not stated) it was 120 °C.
Molecule `Nc1ncnc2c1c(-c1ccc(Oc3ccccc3)cc1)c(Br)n2C1CCOC1` (configuration not stated) displayed a melting point of 205 to 206 °C.
In the case of `CNC(=N)Nc1nc(-c2ccc(OC)cc2)c(-c2ccc(OC)cc2)s1` it was 155 to 157 °C; in that of `CCCCc1nn(-c2cc([N+](=O)[O-])ccc2Cl)c(=O)n1Cc1ccc(-c2ccccc2S(N)(=O)=O)cc1`, greater than 90 °C; in that of `CC(C)(O)CCCCCc1cccc(C=Cc2cc(CO)cc(CO)c2)c1`, 108 to 109 °C.
To `CCCCCCCCSCCCC(=O)O` belongs 33 to 34.5 °C; to `O=C(c1nc(-c2ccc(F)cc2)c(-c2ccc(F)cc2)[nH]1)C(F)(F)F`, 214 to 216 °C.
In the case of `CCc1c([N+](=O)[O-])c(C(N)=O)nn1C[C@H]1CCCN1C` it was 111 to 116 °C.
For `CC(C)(C)OC(=O)C[C@@H](CC1CCCC1)C(=O)N1CCCCC1`, the melting point was 38 to 40 °C.
In the case of `O=Cc1ccc2c(c1)N(C1CCN(CCc3ccccc3F)CC1)CC2` it was 86 to 87 °C; in that of `N#Cc1cc(C(F)(F)F)ccc1Oc1ccc([N+](=O)[O-])c(C(=O)O)c1`, 190 to 192 °C; in that of `CC(C)n1nc(-c2cc(-c3ncnn3C)c(N)nc2-c2ccccc2)ccc1=O`, 253 to 254 °C.
In the case of `CCn1c(=N)c(-c2cccs2)cc2cnc(Nc3ccccc3)nc21` it was 204 to 205 °C.
To `O=C(O)C1CCC(=O)N1c1cccc(O)c1` (configuration not stated) belongs 183 to 185 °C; to `CC=CCn1c(C)c(C)c2cnnc(SCc3c(F)cccc3Cl)c21`, 95 to 117 °C.
`O=C(Nc1nc(Cl)cc(Cl)n1)NS(=O)(=O)c1cccc2cccnc12` came in with a melting point of 198 to 200 °C.
`CCCCCCC(C)(O)CCc1ccc(O)c(O)c1` (configuration not stated): the melting point was in the range of 81 to 83 °C.
To `N#CC(C(=O)Nc1ccccc1Cl)C(=O)c1nn(-c2ccccc2)c2c1Cc1ccccc1-2` (configuration not stated) belongs 295 to 297 °C.
To `O=C(Nc1ccccc1C(F)(F)F)C1CCCCC1` belongs 153 to 154 °C; to `Cc1oc(C2(C)CCCCC2)nc1C(=O)O`, 128 to 129 °C; to `OCCCON=Cc1cn(Cc2ccccc2)c2ccccc12`, 76.4 to 77.7 °C.
For `CCc1ccc(-c2ccc(C(C)=S)cc2)cc1`, the melting point was 84 to 86 °C.
In turn, `Cc1ccc(Cl)c(Nc2ccccc2CON=CC(=O)O)c1Cl` yielded a melting point of 185 to 187 °C.
To `CS(=O)(=O)c1ccc(-c2cnn(CC(F)(F)F)c(=O)c2-c2ccc(S(C)(=O)=O)cc2)cc1` belongs 212 to 213 °C.
As for `O=C(OCc1cc(OCCCO)cc(OCCCO)c1)c1ccccc1`, the melting point lay within 78 to 82 °C.
In the case of `Cc1cccc(-c2nc3c(C)cccn3c2-c2ccnc(-c3ccc(CN4CCOCC4)cc3)c2)n1` it was 122 °C; in that of `COc1ncnc2ccsc12`, 92 to 94 °C.
On to `NC1c2ccccc2-c2[nH]c(=O)c3nccn3c21` (configuration not stated), for which the melting point was found to be 240 °C.
To `Cc1cc(C)c2c(c1C)NC(C)(CCCC(C)CCCC(C)CCCC(C)C)CC2` (configuration not stated) belongs 72 to 73 °C.
In the case of `N=C(NCc1ccccc1)NN=Cc1c(Cl)cccc1Cl` it was 70 to 80 °C.
To `Cc1ccc2c(c1)nc(/C=C/c1ccccc1)n2-c1ccccn1` belongs 145 to 146 °C.
In turn, `CCON=C(C(C)=NOCc1ccccc1C(=COC)C(=O)OC)c1ccc(Oc2ccc(Cl)cc2)cc1` gave a melting point of 87 to 89 °C.
In the case of `C#CCOc1ccc2ccc(NC(=O)c3ccc(OC)cc3)nc2n1` it was 140 °C.
To `Cc1ccc(N2C(=O)C(O)=C(C(=O)c3ccccc3C)C2c2ccc(C(C)C)cc2)nn1` (configuration not stated) belongs 221 °C.
`COc1cc(-c2c(Cl)c(CN3C(=O)CCC3=O)nc3sc4c(c23)CCN(C(C)=O)C4)ccc1OC(C)C`: the melting point lay in the range of 242 to 243 °C.
In the case of `CC1(C)CCN(c2cccc(-c3cnc4[nH]cc(C(=O)C(C)(C)C)c4n3)c2)C1` it was 233 to 235 °C.
To `C[C@H](Cc1cc2c(c(C(N)=O)c1)N(CCCCOCc1ccccc1)CC2)NCCOc1ccccc1OCC(F)(F)F` belongs 101 to 102 °C; to `COc1ccc(OCCCO)cc1`, 56 to 60 °C.
In the case of `O=C(O)c1cc(Br)nn1-c1ncccc1Cl` it was 200 to 201 °C; in that of `CC(CCl)n1c(C(F)(F)F)nc2cc(F)c(-n3c(=O)cc(C(F)(F)F)n(C)c3=O)cc21` (configuration not stated), 93 to 95 °C; in that of `O=C(O)C=Cc1cn(CC(C(=O)c2ccc(Cl)cc2Cl)c2ccccc2)cn1` (configuration not stated), 229 to 231 °C.
In the case of `CCOc1ccc(NC(N)=S)cn1`, the melting point lay in the range of 142 to 146 °C.
To `N#CN1CCC2(CC1)CN(c1ccccc1[N+](=O)[O-])c1cc(Cl)ccc12` belongs 163 to 165 °C.
In the case of `CC(=O)Nc1ccc(F)c(F)c1F` it was 87 to 88 °C; in that of `CCC(CC)C(NC(=O)c1ccc(Cl)cc1)Nc1c(Nc2cccnc2)c(=O)c1=O` (configuration not stated), 232 to 233 °C.
`CCOc1cc2nc(CN(C)C)nc(Nc3cccc(-c4csc(C)n4)c3)c2cc1OCC` gave a melting point of 170 to 172 °C.
In turn, `CC[C@H](C)[C@H](O)C(=O)N1CCC(Oc2cc3ncnc(Nc4cccc(Cl)c4F)c3cc2OC)CC1` had a melting point of 114 to 118 °C.
In the case of `CCC(=O)c1cc[nH]c(=O)c1` it was 168 °C; in that of `O=S(=O)(c1ccc(Cl)cc1)C(CCc1ccccc1)c1cc(F)ccc1F` (configuration not stated), 111 to 113 °C.
